Measured values published in ChEMBL document CHEMBL1201862, “PubChem BioAssay data set” (2004).
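Cultured in 96-well plates, cells were exposed to test compound for 48 hours across five concentrations. Here, GI50 denotes the concentration required for 50% inhibition of growth.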 Calls of active or inactive are those of the source. Cut-off read from the data, not from the text of the source: active = GI50 up to about 1.1 µM and inactive = higher.

Key:
Assay in all cases: NCI anticancer screen, dose series, 48 h
786-0 = system: 786-0
A498 = system: A498
A549 = system: A549
ACHN = system: ACHN
BT-549 = system: BT-549
CAKI-1 = system: CAKI-1
CCRF-CEM = system: CCRF-CEM
COLO 205 = system: COLO 205
DU-145 = system: DU-145
EKVX = system: EKVX
HCC 2998 = system: HCC 2998
HCT-116 = system: HCT-116
HCT-15 = system: HCT-15
HL-60 = system: HL-60
HOP-62 = system: HOP-62
HOP-92 = system: HOP-92
HT-29 = system: HT-29
Hs-578T = system: Hs-578T
IGROV-1 = system: IGROV-1
K562 = system: K562
KM12 = system: KM12
LOX IMVI = system: LOX IMVI
M14 = system: M14
MCF7 = system: MCF7
MDA-MB-231 = system: MDA-MB-231
MDA-MB-435 = system: MDA-MB-435
MDA-N = system: MDA-N
MOLT-4 = system: MOLT-4
Malme-3M = system: Malme-3M
NCI-H226 = system: NCI-H226
NCI-H23 = system: NCI-H23
NCI-H460 = system: NCI-H460
NCI-H522 = system: NCI-H522
NCI/ADR-RES = system: NCI/ADR-RES
OVCAR-3 = system: OVCAR-3
OVCAR-4 = system: OVCAR-4
OVCAR-5 = system: OVCAR-5
OVCAR-8 = system: OVCAR-8
PC-3 = system: PC-3
RPMI-8226 = system: RPMI-8226
RXF 393 = system: RXF 393
SF-268 = system: SF-268
SF-295 = system: SF-295
SK-MEL-28 = system: SK-MEL-28
SK-MEL-2 = system: SK-MEL-2
SK-MEL-5 = system: SK-MEL-5
SK-OV-3 = system: SK-OV-3
SN12C = system: SN12C
SNB-19 = system: SNB-19
SNB-75 = system: SNB-75
SW-620 = system: SW-620
T47D = system: T47D
TK-10 = system: TK-10
U-251 = system: U-251
UACC-257 = system: UACC-257
UACC-62 = system: UACC-62
UO-31 = system: UO-31
SF-539 = system: SF-539

## CC(CC(C#N)(c1ccccc1)c1ccccc1)N1CCCCC1 (stereo not given)
786-0
  GI50: 27.3 µM (inactive)
A498
  GI50: 21.6 µM (inactive)
A549
  GI50: 44 µM (inactive)
ACHN
  GI50: 43.7 µM (inactive)
BT-549
  GI50: 29.5 µM (inactive)
CAKI-1
  GI50: 39 µM (inactive)
CCRF-CEM
  GI50: 23.6 µM (inactive)
COLO 205
  GI50: 16.2 µM (inactive)
DU-145
  GI50: 59.8 µM (inactive)
EKVX
  GI50: 23.8 µM (inactive)
HCC 2998
  GI50: 15.4 µM (inactive)
HCT-116
  GI50: 19.9 µM (inactive)
HCT-15
  GI50: 22.9 µM
HL-60
  GI50: 21 µM (inactive)
HOP-62
  GI50: 29.2 µM (inactive)
HOP-92
  GI50: 31.9 µM (inactive)
HT-29
  GI50: 18.3 µM (inactive)
Hs-578T
  GI50: 27.3 µM (inactive)
IGROV-1
  GI50: 43.2 µM (inactive)
K562
  GI50: 19.3 µM (inactive)
KM12
  GI50: 18.1 µM (inactive)
LOX IMVI
  GI50: 17.3 µM (inactive)
M14
  GI50: 19 µM (inactive)
MCF7
  GI50: 26.5 µM (inactive)
MDA-MB-231
  GI50: 25.7 µM (inactive)
MDA-MB-435
  GI50: 19.1 µM (inactive)
MDA-N
  GI50: 19.1 µM (inactive)
MOLT-4
  GI50: 22.4 µM (inactive)
Malme-3M
  GI50: 17.3 µM (inactive)
NCI-H226
  GI50: 20.7 µM (inactive)
NCI-H23
  GI50: 37.8 µM (inactive)
NCI-H460
  GI50: 16 µM (inactive)
NCI-H522
  GI50: 18.6 µM (inactive)
NCI/ADR-RES
  GI50: 28.1 µM (inactive)
OVCAR-3
  GI50: 17.6 µM (inactive)
OVCAR-4
  GI50: 39.6 µM (inactive)
OVCAR-5
  GI50: 33.1 µM (inactive)
OVCAR-8
  GI50: 42.1 µM (inactive)
PC-3
  GI50: 32.6 µM (inactive)
RPMI-8226
  GI50: 19.2 µM (inactive)
RXF 393
  GI50: 28.7 µM (inactive)
SF-268
  GI50: 48.9 µM (inactive)
SF-295
  GI50: 20 µM (inactive)
SK-MEL-28
  GI50: 23.1 µM (inactive)
SK-MEL-2
  GI50: 21.2 µM (inactive)
SK-MEL-5
  GI50: 18 µM (inactive)
SK-OV-3
  GI50: 65.6 µM (inactive)
SN12C
  GI50: 26 µM (inactive)
SNB-19
  GI50: 80.5 µM (inactive)
SNB-75
  GI50: 29.7 µM (inactive)
SW-620
  GI50: 19.2 µM (inactive)
T47D
  GI50: 49.7 µM (inactive)
TK-10
  GI50: 20.6 µM (inactive)
U-251
  GI50: 29.6 µM (inactive)
UACC-257
  GI50: 14.6 µM (inactive)
UACC-62
  GI50: 21.3 µM (inactive)
UO-31
  GI50: 26.2 µM (inactive)

## COc1ccc2nccc(/C=C/c3ccc(N(C)C)cc3)c2c1
786-0
  GI50: > 10 µM (inactive)
A498
  GI50: > 10 µM (inactive)
A549
  GI50: > 10 µM (inactive)
ACHN
  GI50: > 10 µM (inactive)
BT-549
  GI50: > 10 µM (inactive)
CAKI-1
  GI50: > 10 µM (inactive)
CCRF-CEM
  GI50: 5.66 µM (inactive)
COLO 205
  GI50: > 10 µM (inactive)
DU-145
  GI50: > 10 µM (inactive)
EKVX
  GI50: > 10 µM (inactive)
HCC 2998
  GI50: > 10 µM (inactive)
HCT-116
  GI50: 8.59 µM (inactive)
HCT-15
  GI50: > 10 µM
HL-60
  GI50: > 10 µM (inactive)
HOP-62
  GI50: > 10 µM (inactive)
HOP-92
  GI50: > 10 µM (inactive)
HT-29
  GI50: > 10 µM (inactive)
Hs-578T
  GI50: > 10 µM (inactive)
IGROV-1
  GI50: > 10 µM (inactive)
K562
  GI50: 6.41 µM (inactive)
KM12
  GI50: > 10 µM (inactive)
LOX IMVI
  GI50: > 10 µM (inactive)
M14
  GI50: > 10 µM (inactive)
MCF7
  GI50: > 10 µM (inactive)
MDA-MB-231
  GI50: > 10 µM (inactive)
MDA-MB-435
  GI50: 2.31 µM (inactive)
MDA-N
  GI50: 3.02 µM (inactive)
MOLT-4
  GI50: 8.18 µM (inactive)
Malme-3M
  GI50: > 10 µM (inactive)
NCI-H226
  GI50: > 10 µM (inactive)
NCI-H23
  GI50: > 10 µM (inactive)
NCI-H460
  GI50: > 10 µM (inactive)
NCI-H522
  GI50: > 10 µM (inactive)
NCI/ADR-RES
  GI50: > 10 µM (inactive)
OVCAR-3
  GI50: > 10 µM (inactive)
OVCAR-4
  GI50: > 10 µM (inactive)
OVCAR-5
  GI50: > 10 µM (inactive)
OVCAR-8
  GI50: > 10 µM (inactive)
PC-3
  GI50: > 10 µM (inactive)
RPMI-8226
  GI50: > 10 µM (inactive)
RXF 393
  GI50: > 10 µM (inactive)
SF-268
  GI50: > 10 µM (inactive)
SF-295
  GI50: > 10 µM (inactive)
SF-539
  GI50: > 10 µM (inactive)
SK-MEL-28
  GI50: > 10 µM (inactive)
SK-MEL-2
  GI50: > 10 µM (inactive)
SK-MEL-5
  GI50: > 10 µM (inactive)
SK-OV-3
  GI50: > 10 µM (inactive)
SN12C
  GI50: > 10 µM (inactive)
SNB-19
  GI50: > 10 µM (inactive)
SNB-75
  GI50: 6.73 µM (inactive)
SW-620
  GI50: > 10 µM (inactive)
T47D
  GI50: > 10 µM (inactive)
TK-10
  GI50: > 10 µM (inactive)
U-251
  GI50: > 10 µM (inactive)
UACC-257
  GI50: > 10 µM (inactive)
UACC-62
  GI50: > 10 µM (inactive)
UO-31
  GI50: > 10 µM (inactive)
